Test results as given in PubChem BioAssay (NCI).
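Step 1: Grow cells in 96-well plates. Step 2: Expose to compound for 48 hours at 5 concentrations. Step 3: Interpolate endpoints linearly; if unreached, use highest concentration. TGI is the concentration that stops growth completely.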

Key:
Test in all cases: NCI-60 cell line screen, 48 h
SK-MEL-5 melanoma = test system: SK-MEL-5 melanoma
SNB-75 CNS = test system: SNB-75 CNS
MDA-MB-231 breast = test system: MDA-MB-231 breast
NCI-H226 lung = test system: NCI-H226 lung
DU-145 prostate = test system: DU-145 prostate
OVCAR-5 ovarian = test system: OVCAR-5 ovarian
NCI/ADR-RES ovarian = test system: NCI/ADR-RES ovarian
MDA-N = test system: MDA-N
SK-MEL-2 melanoma = test system: SK-MEL-2 melanoma
M14 melanoma = test system: M14 melanoma
OVCAR-4 ovarian = test system: OVCAR-4 ovarian
A498 renal = test system: A498 renal

SMILES | TGI (SK-MEL-5 melanoma) [µM] | TGI (SNB-75 CNS) [µM] | TGI (MDA-MB-231 breast) [µM] | TGI (NCI-H226 lung) [µM] | TGI (DU-145 prostate) [µM] | TGI (OVCAR-5 ovarian) [µM] | TGI (NCI/ADR-RES ovarian) [µM] | TGI (MDA-N) [µM] | TGI (SK-MEL-2 melanoma) [µM] | TGI (M14 melanoma) [µM] | TGI (OVCAR-4 ovarian) [µM] | TGI (A498 renal) [µM]
CCOC(=O)c1ccc(Nc2nc3ccccc3nc2-c2cccs2)cc1 | > 100 | > 100 | > 100 | > 100 | > 100 | > 100 | > 100 | > 100 | – | – | – | –
C#C[C@]1(O)CC[C@H]2[C@@H]3CCC4=C/C(=N/NC(=O)c5cccc6c(=O)c7ccccc7[nH]c56)CCC4[C@H]3CC[C@@]21C (some centres undefined) | 64.8 | > 100 | > 100 | > 100 | > 100 | > 100 | > 100 | > 100 | > 100 | > 100 | > 100 | –
CC[C@@]1(O)C(=O)OCc2c1cc1n(c2=O)Cc2c-1nc1ccc(O)cc1c2[Si](C)(C)C(C)(C)C | 0.0387 | 0.0162 | 20.6 | 0.015 | 0.0142 | 2.58 | 4.64 | 4.63 | 0.786 | < 0.0114 | 0.174 | –
COc1ccc(C2C3=C(N=C4SC(C(C)=O)=C(C)N42)c2ccccc2CC3)cc1 (centres undefined) | > 100 | > 100 | > 100 | > 100 | > 100 | > 100 | – | > 100 | > 100 | > 100 | > 100 | > 100
CSC(SC)=C(C#N)C(=O)Nc1cccc(Cl)c1 | 40.7 | > 100 | > 100 | > 100 | – | > 100 | > 100 | > 100 | > 100 | > 100 | > 100 | > 100
Fc1cccc(F)c1C1SCc2nc3cc(Cl)c(Cl)cc3n21 (centres undefined) | > 100 | > 100 | > 100 | – | > 100 | > 100 | > 100 | > 100 | > 100 | > 100 | > 100 | –
Cn1nc2ccc(Nc3cc(=O)[nH]c4ccc5nn(C)nc5c34)cc2n1 | > 100 | > 100 | > 100 | > 100 | > 100 | > 100 | > 100 | – | > 100 | > 100 | > 100 | > 100
CC1=NN(c2cccc(Cl)c2)C2(C1=Cc1ccc(O)cc1)C(Cl)C(=O)N2c1nc2ccccc2s1 (centres undefined) | 39.8 | – | 76.1 | > 100 | 67.9 | > 100 | 59.7 | 64.8 | 45.9 | 58.7 | > 100 | 42.5
O=c1[nH]c(=O)n(C2CC(O)C(CO)O2)cc1Oc1ccccc1 (centres undefined) | > 100 | > 100 | > 100 | > 100 | > 100 | > 100 | > 100 | > 100 | – | > 100 | > 100 | –
CN(Cc1cnc2nc(N)nc(N)c2n1)c1ccc(C(=O)NC23CC4CC(CC(C4)C2)C3)cc1 | 17.7 | 38.9 | 39.5 | 27.3 | 38.1 | 24.7 | > 100 | – | 23.6 | 18.4 | – | > 100
